The source of these data is patent US20100087388A1, “ODCASE INHIBITORS AS ANTI-VIRALS AND ANTIBIOTICS” (priority 2005, published 2010).

Structures are written as SMILES.

Series [1] concerns the target T1, Staphylococcus aureus ODCase (Staphylococcus aureus, UniProt Q6GHN1).
T1 construct: made in house; host or cells: E. coli BL21(DE3), pET24a(+)
As to the kind of experiment: ODCase enzyme inhibition assay. The series is classed as biochemical. The note with it: read-out: K1 against Staphylococcus aureus ODCase. The text has this:
ODCase gene, pyrF, was obtained from the complete genomes of the respective bacteria through ATCC. The pyrF gene was amplified from the genome of S. aureus M252 using two synthetic primers: Dir 5′-[…] [SEQ ID NO: 1] and Rev 5′-[…] [SEQ ID NO: 2].
The pET expression system was used to express ODCase from pyrF. The cloning strategy can use any generic strategies, herein a double digestion of pET24a(+) expression vector and pyrF separately using EcoRI and HindIII restriction enzyme was used to produce digestion products with sticky ends. […] The digested vector was separated from the restriction enzyme by gel purification by QIAquick Gel Extraction Kit Protocol using microcentrifuge and quantified on 1% agarose gel with 2-log ladder as standard. In addition to quantifying DNA, 1% agarose gel was run with undigested vector to confirm that the vector was digested.
pyrF from the PCR mixture was also double digested in 50 uL solution using the same conditions described above. The separation of the pyrF from restriction enzymes was carried out by QIAquick Gel Extraction Kit Protocol using Microcentrifuge, and the collected gene was quantified on 1% agarose gel. […]

Series [2] deals with human primary blood cells.

T1 sequence (Q6GHN1 whole entry): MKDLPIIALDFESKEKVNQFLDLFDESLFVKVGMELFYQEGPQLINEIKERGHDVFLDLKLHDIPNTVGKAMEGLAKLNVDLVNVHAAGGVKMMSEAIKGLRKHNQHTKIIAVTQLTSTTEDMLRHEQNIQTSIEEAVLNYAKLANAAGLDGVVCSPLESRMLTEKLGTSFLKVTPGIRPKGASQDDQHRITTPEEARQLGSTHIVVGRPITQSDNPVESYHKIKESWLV

Take `O=c1cc(I)n([C@@H]2O[C@H](COP(=O)(O)O)[C@@H](O)[C@H]2O)c(=O)[nH]1` [Ib, 6-Iodo uridine-5′-O-monophosphate]: the Ki in series [1] is below 50 nM.
For the compound `O=c1cc(I)n([C@@H]2O[C@H](CO)[C@@H](O)[C@H]2O)c(=O)[nH]1` [Ia, 6-Iodo-uridine], the “Effect on human primary blood cells (indications of toxicity)” value in series [2] was “did not inhibit primary cells significantly”.
